In US20260285850A1, “SUBSTITUTED OXAZOLIDINONES AND IMIDAZOLINONES AS HERBICIDES” (FMC CORPORATION, priority 2023, published 2026):

Experiments:
Assay type in all cases: in vivo
rice (Oryza sativa) = experiment: Test B flooded paddy test, visual plant response rating 0-100; settings: 250 g ai/ha, Flood, applied to paddy water, evaluated after 13 days
Method in brief: (§1)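 In this flooded assay, 2-leaf seedlings received compound through the water layer, kept at 3 cm over the soil. Plants were held 13 days in a greenhouse and then visually compared with control pots.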

[1] = system: sedge, umbrella (small-flower umbrella sedge, Cyperus difformis); experiment: as above; settings: 250 g ai/ha, Flood, applied to paddy water, evaluated after 13 days
Method in brief: as §1

[2] = system: ducksalad (Heteranthera limosa); experiment: as above; settings: 250 g ai/ha, Flood, applied to paddy water, evaluated after 13 days
Method in brief: as §1

[3] = system: barnyardgrass (Echinochloa crusgalli); experiment: as above; settings: 250 g ai/ha, Flood, applied to paddy water, evaluated after 13 days
Method in brief: as §1

[4] = system: blackgrass (Alopecurus myosuroides); experiment: Test A postemergence application, visual injury rating 0-100
Description: (§2) Seeds of plant species selected from barnyardgrass (Echinochloa crus-galli), blackgrass (Alopecurus myosuroides), corn (Zea mays), foxtail, giant (giant foxtail, Setaria faberi), green foxtail (Setaria viridis), goosegrass (Eleusine indica), kochia (Bassia scoparia), oat, wild (wild oat, Avena fatua), palmer (palmer amaranth, palmer pigweed, Amaranthus palmeri), ragweed (common ragweed, Ambrosia artemisiifolia), ryegrass, Italian (italian ryegrass, Lolium multiflorum), soybean (Glycine max) and wheat (Triticum aestivum) were planted into a blend of loam soil and sand and treated preemergence with a directed soil spray using test chemicals formulated in a non-phytotoxic solvent mixture which included a surfactant.
(§3) At the same time, plants selected from these crops and weed species and also galium (catchweed bedstraw, Galium aparine) and horseweed (Erigeron canadensis) were planted in pots containing the same blend of loam soil and sand and treated with postemergence applications of test chemicals formulated in the same manner. Plants ranged in height from 2 to 10 cm and were in the one- to two-leaf stage for the postemergence treatment. Treated plants and untreated controls were maintained in a greenhouse for 10 days, after which time all treated plants were compared to untreated controls and visually evaluated for injury. Plant response ratings, summarized in Table A, are based on a 0 to 100 scale where 0 is no effect and 100 is complete control. A dash (-) response means no test result.

soybean (Glycine max) [5] = experiment: as above
Description: as §2, §3

[6] = system: green foxtail (Setaria viridis); experiment: as above
Description: as §2, §3

[7] = system: ryegrass, Italian (italian ryegrass, Lolium multiflorum); experiment: as above
Description: as §2, §3

[8] = system: horseweed (Erigeron canadensis); experiment: as above
Description: as §2, §3

[9] = system: oat, wild (wild oat, Avena fatua); experiment: as above
Description: as §2, §3

[10] = system: barnyardgrass (Echinochloa crus-galli); experiment: as above
Description: as §2, §3

[11] = system: palmer (palmer amaranth, palmer pigweed, Amaranthus palmeri); experiment: as above
Description: as §2, §3

corn (Zea mays) [12] = experiment: as above
Description: as §2, §3

[13] = system: wheat (Triticum aestivum); experiment: as above
Description: as §2, §3

[14] = system: ragweed (common ragweed, Ambrosia artemisiifolia); experiment: as above
Description: as §2, §3

kochia (Bassia scoparia) [15] = experiment: as above
Description: as §2, §3

[16] = system: blackgrass (Alopecurus myosuroides); experiment: Test A preemergence soil spray, visual injury rating 0-100; settings: 10 days
Method in brief: (§4)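 Loam-sand pots got test material in surfactant-containing solvent, either as a directed soil spray before emergence or on plants at the one- to two-leaf stage. Visual injury (0-100) was read after ten greenhouse days.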

soybean (Glycine max) [17] = experiment: as above; settings: 10 days
Method in brief: as §4

[18] = system: green foxtail (Setaria viridis); experiment: as above; settings: 10 days
Method in brief: as §4

[19] = system: ryegrass, Italian (italian ryegrass, Lolium multiflorum); experiment: as above; settings: 10 days
Method in brief: as §4

[20] = system: oat, wild (wild oat, Avena fatua); experiment: as above; settings: 10 days
Method in brief: as §4

[21] = system: barnyardgrass (Echinochloa crus-galli); experiment: as above; settings: 10 days
Method in brief: as §4

[22] = system: palmer (palmer amaranth, palmer pigweed, Amaranthus palmeri); experiment: as above; settings: 10 days
Method in brief: as §4

corn (Zea mays) [23] = experiment: as above; settings: 10 days
Method in brief: as §4

[24] = system: wheat (Triticum aestivum); experiment: as above; settings: 10 days
Method in brief: as §4

[25] = system: ragweed (common ragweed, Ambrosia artemisiifolia); experiment: as above; settings: 10 days
Method in brief: as §4

kochia (Bassia scoparia) [26] = experiment: as above; settings: 10 days
Method in brief: as §4

[27] = 62 g ai/ha, postemergence, 10 days, 0 = no effect, 100 = complete control
[28] = Postemergence, 16 g ai/ha, greenhouse 10 days, 0 no effect, 100 complete control
[29] = 62 g ai/ha, 0 = no effect, 100 = complete control

## CCOC(=O)C1=CCC(NC(=O)C2(C)CN(c3cc(Cl)cc(Cl)c3)C(=O)O2)C1 (centres unmarked) [Compound 114]
Rice (Oryza sativa)
  Plant response rating, Rice (0 to 100 scale, 0 is no effect and 100 is complete control): 55
[1]
  Plant response rating, Sedge, Umbrella (0 to 100 scale, 0 is no effect and 100 is complete control): 98
[2]
  Plant response rating, Ducksalad (0 to 100 scale, 0 is no effect and 100 is complete control): 80
[3]
  Plant response rating, Barnyardgrass (0 to 100 scale, 0 is no effect and 100 is complete control): 90
[4]; [27]
  Blackgrass plant response rating (0-100): 80
[4]; [28]
  Blackgrass plant response rating (0 to 100 scale): 50
Soybean (Glycine max) [5]; [27]
  Soybean plant response rating (0-100): 70
Soybean (Glycine max) [5]; [28]
  Soybean plant response rating (0 to 100 scale): 50
[6]; [27]
  Foxtail, Green plant response rating (0-100): 90
[6]; [28]
  Foxtail, Green plant response rating (0 to 100 scale): 80
[7]; [27]
  Ryegrass, Italian plant response rating (0-100): 80
[7]; [28]
  Ryegrass, Italian plant response rating (0 to 100 scale): 50
[8]; [27]
  Horseweed plant response rating (0-100): 70
[8]; [28]
  Horseweed plant response rating (0 to 100 scale): 20
[9]; [27]
  Oat, Wild plant response rating (0-100): 40
[9]; [28]
  Oat, Wild plant response rating (0 to 100 scale): 30
[10]; [27]
  Barnyardgrass plant response rating (0-100): 100
[10]; [28]
  Barnyardgrass plant response rating (0 to 100 scale): 100
[11]; [27]
  Pigweed, Palmer plant response rating (0-100): 90
[11]; [28]
  Pigweed, Palmer plant response rating (0 to 100 scale): 90
Corn (Zea mays) [12]; [27]
  Corn plant response rating (0-100): 100
Corn (Zea mays) [12]; [28]
  Corn plant response rating (0 to 100 scale): 100
[13]; [27]
  Wheat plant response rating (0-100): 90
[13]; [28]
  Wheat plant response rating (0 to 100 scale): 80
[14]; [27]
  Ragweed plant response rating (0-100): 50
[14]; [28]
  Ragweed plant response rating (0 to 100 scale): 10
Kochia (Bassia scoparia) [15]; [27]
  Kochia plant response rating (0-100): 90
Kochia (Bassia scoparia) [15]; [28]
  Kochia plant response rating (0 to 100 scale): 80
[16]; 16 g ai/ha, 0 to 100 scale
  Blackgrass plant response rating: 0
[16]; [29]
  Blackgrass plant response rating (0-100): 20
Soybean (Glycine max) [17]; 16 g ai/ha, 0 to 100 scale
  Soybean plant response rating: 0
Soybean (Glycine max) [17]; [29]
  Soybean plant response rating (0-100): 10
[18]; 16 g ai/ha, 0 to 100 scale
  Foxtail, Green plant response rating: 0
[18]; [29]
  Foxtail, Green plant response rating (0-100): 90
[19]; 16 g ai/ha, 0 to 100 scale
  Ryegrass, Italian plant response rating: 0
[19]; [29]
  Ryegrass, Italian plant response rating (0-100): 80
[20]; 16 g ai/ha, 0 to 100 scale
  Oat, Wild plant response rating: 0
[20]; [29]
  Oat, Wild plant response rating (0-100): 20
[21]; 16 g ai/ha, 0 to 100 scale
  Barnyardgrass plant response rating: 0
[21]; [29]
  Barnyardgrass plant response rating (0-100): 90
[22]; 16 g ai/ha, 0 to 100 scale
  Pigweed, Palmer plant response rating: 40
[22]; [29]
  Pigweed, Palmer plant response rating (0-100): 90
Corn (Zea mays) [23]; 16 g ai/ha, 0 to 100 scale
  Corn plant response rating: 0
Corn (Zea mays) [23]; [29]
  Corn plant response rating (0-100): 30
[24]; 16 g ai/ha, 0 to 100 scale
  Wheat plant response rating: 0
[24]; [29]
  Wheat plant response rating (0-100): 40
[25]; 16 g ai/ha, 0 to 100 scale
  Ragweed plant response rating: 0
[25]; [29]
  Ragweed plant response rating (0-100): 0
Kochia (Bassia scoparia) [26]; 16 g ai/ha, 0 to 100 scale
  Kochia plant response rating: 0
Kochia (Bassia scoparia) [26]; [29]
  Kochia plant response rating (0-100): 0
